The results in this text go back to paper PMC12881674, “Activation of TRPV3 channels in bladder cancer cells stimulates ATP release” (Molecular Pharmacology, 2025).

One experiment has as its target T1, human TRPA1 (Homo sapiens, UniProt O75762).
T1 construct: expressed in transfected cells; host or cells: HEK293
The experiment in a line: fluo-4 Ca2+ assay selectivity, HEK cells expressing human TRPA1. In kind it is cell-based. From the text:
(§1) KU-19-19 (DSMZ no. ACC 395), CAL-29 (DSMZ no. ACC 515), 647-V (DSMZ no. ACC 414), RT-4 (DSMZ no. ACC 412), and RT-112 (DSMZ no. ACC 418) bladder cancer cell lines were obtained from the Leibniz Institute DSMZ (German Collection of Microorganisms and Cell Cultures). Human TRPV3 (NM_145068, purchased from OriGene) and mouse TRPV3 (NM_001371006), rat TRPV1, mouse TRPV2, mouse TRPV4, human TRPM2, human TRPM8, and human TRPA1 were stably transfected in HEK293 cells as described before.[27] […]
(§2) All fluorometric Ca^2+ assays were performed in HBS buffer at room temperature. […] For the primary compound screening and the generation of concentration-response analyses, a robotic liquid handling station (Freedom Evo 150; Tecan) with a built-in custom-made fluorescence plate imager was used. […] Fluorescence was excited using a 470-nm light-emitting diode, and emitted light was imaged through a 515-nm–long pass filter with a cooled Zyla 5.5 camera (Andor). Fluorescence was recorded and processed under the control of the μ-Manager 2.0 gamma software (https://micro-manager.org.[28]). After recording baseline fluorescence, compounds were dispensed into the wells via the liquid handling device. […] For further analysis, fluorescence signals were calculated for each well, corrected for background intensities and normalized to the initial signals. […]

Another experiment has as its target T2, human TRPV3 (Homo sapiens, UniProt Q8NET8).
T2 construct: host or cells: HEK293
T2 sequence (Q8NET8 1-790): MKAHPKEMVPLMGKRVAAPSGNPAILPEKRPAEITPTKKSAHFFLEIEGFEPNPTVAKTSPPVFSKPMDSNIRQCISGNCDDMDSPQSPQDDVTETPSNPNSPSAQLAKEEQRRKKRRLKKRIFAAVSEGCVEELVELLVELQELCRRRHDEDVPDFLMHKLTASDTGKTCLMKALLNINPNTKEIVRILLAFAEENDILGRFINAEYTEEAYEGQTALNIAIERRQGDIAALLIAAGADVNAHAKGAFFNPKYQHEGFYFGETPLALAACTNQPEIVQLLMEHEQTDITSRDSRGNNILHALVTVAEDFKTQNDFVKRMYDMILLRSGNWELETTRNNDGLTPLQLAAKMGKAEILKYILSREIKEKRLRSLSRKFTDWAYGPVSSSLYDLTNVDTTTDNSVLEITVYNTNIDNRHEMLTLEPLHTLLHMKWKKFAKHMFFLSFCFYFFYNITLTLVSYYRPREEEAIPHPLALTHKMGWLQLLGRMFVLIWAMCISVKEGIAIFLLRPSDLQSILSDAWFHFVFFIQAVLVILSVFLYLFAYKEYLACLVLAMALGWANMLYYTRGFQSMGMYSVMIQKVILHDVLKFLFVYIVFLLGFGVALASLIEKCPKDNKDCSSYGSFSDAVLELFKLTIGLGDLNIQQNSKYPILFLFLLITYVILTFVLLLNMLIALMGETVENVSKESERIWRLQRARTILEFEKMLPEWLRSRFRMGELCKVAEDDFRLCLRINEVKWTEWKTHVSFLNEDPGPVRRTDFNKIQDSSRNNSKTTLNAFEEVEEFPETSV
Briefly: fluo-4 fluorometric Ca2+ assay, concentration-response, HEK cells expressing human TRPV3. Format: cell-based. As to conditions: HEK cells expressing human TRPV3, fluo-4, room temperature, mean ± SD back-transformed from log space, n=5; read-out: EC50 for human TRPV3 activation.
Text: as §1, §2

Molecules are shown by their SMILES.

T1 sequence (O75762 whole entry): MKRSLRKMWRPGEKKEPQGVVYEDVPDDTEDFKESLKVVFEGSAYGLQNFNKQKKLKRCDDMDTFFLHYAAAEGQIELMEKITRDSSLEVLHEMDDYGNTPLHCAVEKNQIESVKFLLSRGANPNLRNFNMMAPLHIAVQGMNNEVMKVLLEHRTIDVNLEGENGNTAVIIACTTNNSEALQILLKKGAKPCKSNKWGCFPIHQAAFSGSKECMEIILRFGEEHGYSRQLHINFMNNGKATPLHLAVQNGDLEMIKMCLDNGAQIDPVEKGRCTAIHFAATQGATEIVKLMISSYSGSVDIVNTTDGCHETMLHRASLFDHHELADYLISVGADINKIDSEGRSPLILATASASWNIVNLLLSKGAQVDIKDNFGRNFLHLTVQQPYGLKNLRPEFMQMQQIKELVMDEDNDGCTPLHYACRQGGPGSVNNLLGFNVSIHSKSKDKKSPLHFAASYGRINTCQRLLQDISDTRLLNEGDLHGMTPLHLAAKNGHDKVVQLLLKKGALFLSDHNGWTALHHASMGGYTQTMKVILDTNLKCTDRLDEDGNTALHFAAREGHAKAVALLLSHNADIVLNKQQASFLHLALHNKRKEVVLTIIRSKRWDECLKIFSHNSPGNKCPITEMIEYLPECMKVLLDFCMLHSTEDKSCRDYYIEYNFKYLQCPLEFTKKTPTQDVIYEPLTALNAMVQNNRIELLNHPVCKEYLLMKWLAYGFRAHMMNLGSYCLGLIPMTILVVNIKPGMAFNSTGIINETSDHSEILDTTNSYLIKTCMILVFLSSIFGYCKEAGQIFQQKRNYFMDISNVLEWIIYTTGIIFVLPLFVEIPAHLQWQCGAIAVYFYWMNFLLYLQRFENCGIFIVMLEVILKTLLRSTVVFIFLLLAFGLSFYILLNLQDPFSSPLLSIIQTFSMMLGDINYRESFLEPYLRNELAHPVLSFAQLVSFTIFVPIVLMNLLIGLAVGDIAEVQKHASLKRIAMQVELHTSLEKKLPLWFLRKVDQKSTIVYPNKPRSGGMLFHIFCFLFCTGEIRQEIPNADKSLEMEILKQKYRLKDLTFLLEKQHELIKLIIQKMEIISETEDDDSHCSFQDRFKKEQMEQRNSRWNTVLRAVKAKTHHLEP

By EC50 is commonly meant the concentration needed to bring the measured effect to its halfway point. Take `COC(=O)C12CN(Cc3ccccc3)CC1(C(=O)OC)CN(Cc1ccccc1)C2` (centres unmarked) [AV3-1]: the “effect on TRPA1” value on human TRPA1 is reported as “activates”. In addition, on human TRPV3, the EC50 is 7.2 ± 1.4 µM.
